Laboratory results from patent publication US20040127567A1, “Novel methods for treating disorders in which docosahexaenoic acid (DHA) levels are affected” (Beth Israel Deaconess Medical Center, Inc., priority 1998, published 2004).
Where “and” joins values, the source holds several entries; their conditions need not be identical. Equal values may be shown once.

Assay: Plasma levels of DHA in mice fed DHA
Assay type: in vivo, mouse
Conditions: for Plasma level of DHA: values for two different mice
Method: Mouse pancreatic acinar and lung cell suspensions were prepared from wild type (n=3) and CFTR−/− mice (n=3) by enzymatic and mechanical dissociation. In addition, brain, kidney, heart, spleen, and blood were sonicated in 0.3M sucrose buffer. Membrane lipids were extracted from cell and organ preparations with 20 volumes of chloroform-methanol 2:1 (v/v), transmethylated with 0.5 mL of 0.1 N methanolic-NaOH/BF3 reagent, and the resulting fatty acid methyl esters analyzed by gas chromatography/mass spectrometry (GC/MS). In a different set of experiments, lipids were fractionated by aminopropyl column chromatography into triglycerides, cholesterol esters, and phosphoglycerides and the fatty acid composition of each lipid class determined by a combination of enzymatic hydrolysis, transmethylation, and GC/MS.
Cystic fibrosis (UNC strain) and wild type mice (12-20 grams body weight) were fed with a complete liquid enteral formulation (Peptamen™, Nestle Clinical Nutrition, Inc.) supplemented with different quantities of the DHA-containing formulation Neuromins (Nature's Way Products Inc., Springville, Utah). DHA content in the Neuromins formulation was 100 mg per 500 mg of formulation. Mice were fed once a day at about 11 a.m., seven days a week with 20 ml of Peptamen™ supplemented with the various amounts of either Neuramins, free DHA (Sigma Chemical Co., MO) or DHA-ethyl ester (Nu-Check-Prep, Inc. MN) ranging from 0.5 mg/day of DHA to 40 mg/day of DHA.
Plasma levels of DHA in CF and wild-type mice were measured as described above in the method section.
Since the pancreas and the lung are the two primary organs affected in cystic fibrosis, AA and DHA levels in cell preparations of these organs and in wild-type and CFTR−/− mice were quantitated by GC/MS analysis. Lipids were extracted from cell suspensions, tissue homogenates, and blood plasma with 6 volumes of chloroform-methanol (2:1, v/v). The resulting emulsions were centrifuged at 600 g for 3 min and the lower phase containing the lipids was collected. This procedure was repeated twice and the lower phases from the two extractions combined. Aliquots of 30 μL of heptadecanoic acid (17:0) (1 mg/ml) were added to the extracts and used as an internal standard. Samples were evaporated to dryness under nitrogen. The resulting lipids were subsequently transmethylated using the 0.1N methanolic NaOH/boron tri fluoride reagent (Alvarez et al., (1995) Mol. Reprod. Dev. 42:334-346). The resulting fatty acid methyl esters were analyzed by Hewlett Packard GC/MS mounted with a WCOT capillary column (Supelcowax-10, 30 m×0.53 mm I.D., 1 μm film thickness) with initial and final temperatures in the column oven of 150° C. and 250° C., respectively, programmed to increase at a rate of 10° C./min. Fatty acid methyl ester peaks were identified by comparison of retention times of standard fatty acid mixtures and by mass spectrometry, and quantified using methylheptadecanoate as the internal standard. In some studies, the different lipid classes including cholesterol esters, triglycerides, free fatty acids, and glycerolipids, were also fractionated from cell and tissue extracts by aminopropyl column chromatography and the corresponding fatty acid methyl esters prepared and analyzed (Alvarez et al., (1992) J. Chromatogr. B. 577:142-145). In order to determine the fatty acids bound to the sn-2 position of lipids, the phospholipid fraction obtained by aminopropyl column chromatography was incubated at 37° C. for 15 min in 0.5 ml of PBS containing 250 units of phospholipase A2, and the resulting fatty acids methylated and analyzed by GC/MS (Alvarez et al., (1995) Mol. Reprod. Dev. 42:334-346).

Plasma level of DHA (CF mice, 0.5 mg/day DHA): 41 µg/mL and 40 µg/mL
Plasma level of DHA (CF mice, 2 mg/day DHA): 99 µg/mL and 77 µg/mL
Plasma level of DHA (CF mice, 10 mg/day DHA): 106 µg/mL and 133 µg/mL
Plasma level of DHA (CF mice, 40 mg/day DHA): 230 µg/mL and 263 µg/mL
DHA plasma level reached (CFTR−/− mice, 35 to 40 mg/day DHA in liquid enteral formulation): above 170 μg/ml
Plasma level of DHA (WT mice, 40 mg/day DHA): 214 µg/mL and 194 µg/mL
DHA plasma levels in CFTR−/− versus wild-type mice (increasing oral doses of DHA, p=0.5, n=3 (FIG. 6)): not significantly different
Compound: CC/C=C\C/C=C\C/C=C\C/C=C\C/C=C\C/C=C\CCC(=O)O [DHA, docosahexaenoic acid]
